PMC9578020, “Design, synthesis, molecular modeling, and bioactivity evaluation of 1,10-phenanthroline and prodigiosin (Ps) derivatives and their Copper(I) complexes against mTOR and HDAC enzymes as highly potent and effective new anticancer therapeutic drugs” (Frontiers in Pharmacology, 2022)
Values joined by “and” are separate entries in the source; they are usually repeats but may differ in a detail not shown here. Identical values can stand only once. Like-named read-outs stand apart in the source and are kept apart here.

What was measured:
[1] = test system: MDA-MB-231BR (231BR); test: CCK8 anticancer activity / cytotoxicity test, 231BR; assay type: cell-based
Method: (§1) The IC50 was calculated by SPSS statistics (IBM). […] All cytotoxicity tests were performed in six biological replicates.
(§2) The anticancer activity against 231BR is of highest interest. […] Figure 3 depicts the anticancer activities of these compounds.

[2] = test system: MDA-MB-231 (231); test: CCK8 anticancer activity / cytotoxicity test, 231; assay type: cell-based, human
[3] = test system: MDA-MB-361 (361); test: CCK8 anticancer activity / cytotoxicity test, 361; assay type: cell-based
Method: as §1, §2

[4] = test system: HTB131; test: CCK8 anticancer activity / cytotoxicity test, HTB131; assay type: cell-based
[5] = test system: CRL-1620 (CRL); test: CCK8 anticancer activity / cytotoxicity test, CRL; assay type: cell-based
[6] = test system: MCF10A; test: CCK8 cytotoxicity test on normal cell line MCF10A
Method: (§3) MDA-MB-231 (231) and HTB131 were grown with RPIM-1640 medium (with 10% Fetal Bovine Serum and 2% Penicillin-Streptomycin Solution). MDA-MB-231BR (231BR), CRL-1620 (CRL), and MCF10A were grown with DMEM (with 10% Fetal Bovine Serum and 2% Penicillin-Streptomycin Solution). HTB22 was grown with EMEM (with 10% Fetal Bovine Serum and 2% Penicillin-Streptomycin Solution). Cell lines were taken out from liquid nitrogen and thawed in a 37°C water bath. After thawing, cell cultures were transferred to 75 cm^2 flasks and incubated at 37°C with 5% CO2 for 4–7 days. After reaching 80% of cell confluence, cells were ready for subculturing or testing.
(§4) Anticancer activity tests were performed using a Cell Counting Kit-8 (CCK8, SigmaAldrich) following manufacturer’s instruction ([Shen et al., 2016]). Briefly, 100 µl of diluted cell suspension (approximately 10000 cells) was transferred to 96-well plate, incubated at 37°C with 5% CO2 for 24 h. Then, the compounds were diluted into a serial of concentrations in DMSO. Next, 0.5 µl of diluted compounds were added to 100 µl of cell medium and gently mixed, resulting in the final concentration of DMSO at 0.5%. 100 µl of the compound contained medium were then used to replace the original medium and incubated at 37°C for 48 h. After incubation with compounds, 10 µl of CCK8 reagent was added to each well and mixed by gently tapping the plate. Then, the plate was incubated at 37°C for 2–4 h until the orange color was dark enough to measure. The plate was measured using a Multiskan microplate reader (Fisher Scientific) at 450 nm. The IC50 was calculated by SPSS statistics (IBM). […] All cytotoxicity tests were performed in six biological replicates. Each compound was performed two cycles of screening: primary screening using 10 times serial dilution to determine the approximate concentration and then secondary screening using a narrow concentration range to acquire the accurate IC50.
(§5) The newly synthesized molecules in which their binding affinities were predicted in silico were tested on five different breast cancer lines, MDA-MB-231 (231), MDA-MB-361 (361), HTB131, HTB22, and MDA-MB-231BR (231BR), and one brain cancer cell line, CRL-1620 (CRL). […] Among these cell lines, 231BR attracted most of our interest because it is a brain metastatic specific breast cancer cell line that has 100% rate of brain metastasis and cannot migrate to any other organs ([Yoneda et al., 2001]). The anticancer capacities of each compound were first screened by 10 times dilution to generate different molar concentrations ranging in 5 orders of magnitudes. This wide concentration range was applied for primary screening (Supplementary Table S3) to narrow down the targets. The approximate IC50 was estimated in the primary screening step and used to design the concentration range of the secondary cytotoxicity tests (Supplementary Table S4). […] Anticancer drug taxol (paclitaxel) was used as the reference to estimate the efficacy of each compound. […] The anticancer activity against 231BR is of highest interest. Meanwhile, the same treatments were performed against the normal breast cell line, MCF10A, to test their cytotoxicity. […] A negative logarithm of IC50 was applied to represent the corresponding anticancer activity.

[7] = test system: HTB22; test: CCK8 anticancer activity / cytotoxicity test, HTB22; assay type: cell-based; details: read-out: Approximate IC50, primary screening
Method: as §1, §2

[8] = CCK8 cytotoxicity test on normal cell line MCF10A; details: human
Method: as §3, §4, §5

[9] = 231BR, 48 h, 10 times serial dilution, read-out: Approximate IC50, primary screening
[10] = 48 h, read-out: Approximate IC50, primary screening
[11] = 48 h, read-out: IC50, secondary cytotoxicity test
[12] = Homo sapiens, MCF-10A, 48 h, read-out: Approximate IC50, primary screening
[13] = CRL, 48 h, 10 times serial dilution, read-out: Approximate IC50, primary screening

With `COc1ccc(-c2ccc3ccc4ccc(-c5ccc(OC)cc5)nc4c3n2)cc1.Cc1cc2ccc1OCCOCCOCCOCCOCCOc1ccc(cc1C)-c1ccc3ccc4ccc-2nc4c3n1.F[P-](F)(F)(F)(F)F.[Cu+]` [Compound C1] the IC50 [1] was 0.597 µM, the IC50 [1, 9] was < 10 µM and the IC50 [2] was 0.403 µM. For the same molecule, the IC50 [3] was 6.5 µM, the IC50 [4] was 0.228 µM and the IC50 [5] was 0.315 µM. The IC50 [6] was 1 µM.
For `CCCCCC1=C/C(=C/c2[nH]c(-c3ccc[nH]3)cc2OC)N=C1C` [Ps, Prodigiosin], the IC50 ([1]; 48 h, read-out: IC50, secondary cytotoxicity test, 231BR, 48 h) was 0.312 µg/mL, the IC50 ([1]; 48 h, read-out: IC50, secondary cytotoxicity test, 231BR, 48 h, narrow concentration range) was 0.963 µM and the IC50 ([2]; Homo sapiens, MDA-MB-231, 48 h, read-out: Approximate IC50, primary screening) was 0.75 to 7.5 µM. For the same molecule, the IC50 ([2]; Homo sapiens, MDA-MB-231, 48 h, read-out: IC50, secondary cytotoxicity test) was 0.511 µg/mL and 1.58 µM, the IC50 ([3]; Homo sapiens, MDA-MB-361, 48 h, read-out: Approximate IC50, primary screening, 361, 48 h, 10 times serial dilution) was > 7.5 µM and the IC50 ([3]; Homo sapiens, MDA-MB-361, 48 h, read-out: IC50, secondary cytotoxicity test, 361, 48 h, Table S4) was > 75 µM. For the same molecule, the IC50 ([3]; Homo sapiens, MDA-MB-361, 48 h, read-out: IC50, secondary cytotoxicity test, 361, 48 h, increased drug concentration) was 228 µM, the IC50 ([3]; Homo sapiens, MDA-MB-361, 48 h, read-out: IC50, secondary cytotoxicity test, 361, 48 h, increased drug concentration (mg/mL)) was 0.074 mg/mL and the IC50 [4, 10] was 0.75 to 7.5 µM. The IC50 [4, 11] was 2.81 µM and 0.91 µg/mL, the IC50 ([7]; 48 h) was > 75 µM and the IC50 [5, 10] was 0.75 to 7.5 µM. For the same molecule, the IC50 [5, 11] was 4.64 µM and 1.5 µg/mL, the IC50 at 48 h [8] was 8.75 µM and 2.84 µg/mL and the IC50 [6, 12] was 7.5 µM.
Work on `CCC1=N/C(=C\c2[nH]c(-c3ccc4cc[nH]c4c3)cc2OC)C=C1` [Compound L13] yielded an IC50 [1, 9] of 3.1 µM, an IC50 ([1]; 231BR, 48 h, narrow concentration range, read-out: IC50, secondary cytotoxicity test) of 5.06 µM and an IC50 ([2]; Homo sapiens, MDA-MB-231, 231, 48 h, narrow concentration range, read-out: IC50, secondary cytotoxicity test) of 3.49 µM. The IC50 ([4]; HTB131, 48 h, narrow concentration range, read-out: IC50, secondary cytotoxicity test) was 12.6 µM, the IC50 ([5]; CRL, 48 h, narrow concentration range, read-out: IC50, secondary cytotoxicity test) was 6.53 µM and the IC50 at 48 h ([8]; MCF10A normal breast cells) was 3.7 µM.
For `CCC1=N/C(=C\c2[nH]c(-c3ccc4[nH]ccc4c3)cc2OC)C=C1` [Compound L14], the IC50 ([7]; HTB22, 48 h, 10 times serial dilution) was > 79 µM and the IC50 [5, 13] was > 79 µM.
`CCC1=N/C(=C\c2[nH]c(-c3ncc[nH]3)cc2OC)C=C1` [Compound L10] gave an IC50 [1, 9] of 285 µM.
`CCC1=NC(=Cc2[nH]c(-c3cn[nH]c3)cc2OC)C=C1.CCC1=NC(=Cc2[nH]c(-c3cn[nH]c3)cc2OC)C=C1.F[P-](F)(F)(F)(F)F.[Cu+]` [Compound C8] showed an IC50 [1, 9] of 48.5 µM.
With `CC(=O)O[C@H]1C(=O)[C@@]2(C)[C@H]([C@H](OC(=O)c3ccccc3)[C@]3(O)C[C@H](OC(=O)[C@H](O)[C@@H](NC(=O)c4ccccc4)c4ccccc4)C(C)=C1C3(C)C)[C@]1(OC(C)=O)CO[C@@H]1C[C@@H]2O` [Taxol, paclitaxel, reference compound] the IC50 [1, 9] was 0.039 µM, the IC50 ([2]; Homo sapiens, MDA-MB-231, 231, 48 h, 10 times serial dilution, read-out: Approximate IC50, primary screening) was 0.0213 µM and the IC50 ([3]; Homo sapiens, MDA-MB-361, 361, 48 h, 10 times serial dilution, read-out: Approximate IC50, primary screening) was > 7.5 µM. The IC50 ([4]; HTB131, 48 h, 10 times serial dilution, read-out: Approximate IC50, primary screening) was 0.057 µM, the IC50 [5, 13] was 0.028 µM and the IC50 [6, 12] was > 7.5 µM. The “times lower cytotoxicity on normal cell line” value ([6]; normal cell line MCF10A relative to 231BR) was “more than 700 times”.
Molecule `CCC1=N/C(=C\c2[nH]c(-c3cccc4cc[nH]c34)cc2OC)C=C1` [Compound L15] has an IC50 ([1]; 48 h, 231BR, 48 h, 10 times serial dilution, read-out: Approximate IC50, primary screening) of 32 µM.
